In ChEMBL document CHEMBL5338719, “Recent advance on pleiotropic cholinesterase inhibitors bearing amyloid modulation efficacy” (Eur J Med Chem, 2022):
One block for each compound: values may come before it.

Key:
[1] = molecular target: T1, Cholinesterase (Homo sapiens, UniProt P06276); test: Inhibition of human […] BChE using BTC iodide as substrate preincubated for 5 mins followed by substrate addition measured Ellmans method
[2] = molecular target: T2, Acetylcholinesterase (Homo sapiens, UniProt P22303); test: Inhibition of human erythrocyte AChE using ATC iodide as substrate preincubated for 5 mins followed by substrate addition measured Ellmans method
T2 sequence (P22303 whole entry): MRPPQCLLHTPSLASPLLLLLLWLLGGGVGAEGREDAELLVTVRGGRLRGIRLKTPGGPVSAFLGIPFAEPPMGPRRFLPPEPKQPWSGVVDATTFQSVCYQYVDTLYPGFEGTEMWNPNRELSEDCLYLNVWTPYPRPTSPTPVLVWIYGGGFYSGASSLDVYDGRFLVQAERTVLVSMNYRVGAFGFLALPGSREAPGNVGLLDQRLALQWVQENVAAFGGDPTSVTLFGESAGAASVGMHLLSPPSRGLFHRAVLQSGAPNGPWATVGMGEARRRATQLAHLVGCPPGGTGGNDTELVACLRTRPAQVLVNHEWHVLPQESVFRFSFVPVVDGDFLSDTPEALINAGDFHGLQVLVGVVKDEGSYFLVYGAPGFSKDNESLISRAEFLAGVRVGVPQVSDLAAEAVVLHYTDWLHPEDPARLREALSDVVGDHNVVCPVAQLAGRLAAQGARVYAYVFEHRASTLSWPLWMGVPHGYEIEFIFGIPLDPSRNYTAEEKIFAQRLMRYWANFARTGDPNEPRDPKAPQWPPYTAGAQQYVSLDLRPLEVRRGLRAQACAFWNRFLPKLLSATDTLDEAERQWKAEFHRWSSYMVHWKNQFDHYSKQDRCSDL

[3] = molecular target: T3, Amyloid-beta precursor protein (Homo sapiens, UniProt P05067); test: Inhibition of amyloid beta 1 to 42 (unknown origin) self aggregation at 50 uM for 24 hrs by ThT fluorometric assay relative to control
T3 sequence (P05067 whole entry): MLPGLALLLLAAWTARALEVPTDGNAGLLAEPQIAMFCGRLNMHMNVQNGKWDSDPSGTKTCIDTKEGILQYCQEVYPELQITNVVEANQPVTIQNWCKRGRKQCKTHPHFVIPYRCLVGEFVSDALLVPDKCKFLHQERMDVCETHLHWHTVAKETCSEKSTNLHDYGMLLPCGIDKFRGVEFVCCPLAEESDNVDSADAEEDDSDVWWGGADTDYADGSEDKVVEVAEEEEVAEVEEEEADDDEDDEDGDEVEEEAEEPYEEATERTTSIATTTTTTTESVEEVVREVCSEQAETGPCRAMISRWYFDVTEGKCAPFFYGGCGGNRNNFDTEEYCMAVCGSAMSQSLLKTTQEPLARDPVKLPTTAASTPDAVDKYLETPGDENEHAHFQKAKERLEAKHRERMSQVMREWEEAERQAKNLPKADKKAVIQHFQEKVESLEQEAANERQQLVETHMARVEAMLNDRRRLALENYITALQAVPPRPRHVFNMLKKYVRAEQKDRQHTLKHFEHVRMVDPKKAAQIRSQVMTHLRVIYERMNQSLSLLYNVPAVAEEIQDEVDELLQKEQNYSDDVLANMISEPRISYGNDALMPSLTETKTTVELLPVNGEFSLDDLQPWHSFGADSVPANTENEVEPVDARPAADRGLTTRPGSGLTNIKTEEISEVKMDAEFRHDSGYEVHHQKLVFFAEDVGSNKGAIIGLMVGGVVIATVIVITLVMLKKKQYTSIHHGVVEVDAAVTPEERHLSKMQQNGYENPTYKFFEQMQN

[4] = molecular target: Microtubule-associated protein tau (Homo sapiens) (UniProt P10636); test: Inhibition of tau (306 to 336 residue) (unknown origin) aggregation at 50 uM incubated overnight by ThT fluorometric assay relative to control
Chain of Microtubule-associated protein tau (Homo sapiens) (P10636 whole entry): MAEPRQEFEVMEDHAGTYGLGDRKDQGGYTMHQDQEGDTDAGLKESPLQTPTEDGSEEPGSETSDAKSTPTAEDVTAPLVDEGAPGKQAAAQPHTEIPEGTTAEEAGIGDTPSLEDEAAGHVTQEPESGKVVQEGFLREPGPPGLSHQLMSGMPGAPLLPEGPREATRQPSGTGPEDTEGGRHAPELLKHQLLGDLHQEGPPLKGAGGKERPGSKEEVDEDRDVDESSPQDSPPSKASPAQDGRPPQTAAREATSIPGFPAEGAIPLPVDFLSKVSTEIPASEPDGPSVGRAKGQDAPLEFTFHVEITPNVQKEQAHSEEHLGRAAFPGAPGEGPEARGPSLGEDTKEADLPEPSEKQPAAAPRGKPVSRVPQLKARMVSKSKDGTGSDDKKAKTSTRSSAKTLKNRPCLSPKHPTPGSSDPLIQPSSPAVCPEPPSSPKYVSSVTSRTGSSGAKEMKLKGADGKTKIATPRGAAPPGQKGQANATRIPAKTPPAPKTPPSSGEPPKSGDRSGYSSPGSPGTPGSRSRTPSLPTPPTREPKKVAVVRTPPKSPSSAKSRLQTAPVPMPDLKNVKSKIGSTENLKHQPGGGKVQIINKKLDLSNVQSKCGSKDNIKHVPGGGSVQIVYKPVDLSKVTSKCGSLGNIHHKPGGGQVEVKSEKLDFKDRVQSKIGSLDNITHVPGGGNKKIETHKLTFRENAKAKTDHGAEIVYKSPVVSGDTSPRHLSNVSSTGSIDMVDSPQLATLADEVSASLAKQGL

[5] = molecular target: T3, Amyloid-beta precursor protein; test: Inhibition of amyloid beta 1 to 42 (unknown origin) self induced aggregation at 100 uM by thioflavin T-based fluorometric assay relative to control
[6] = molecular target: T3, Amyloid-beta precursor protein; test: Inhibition of amyloid beta 42 (unknown origin) self aggregation at 10 uM relative to control
[7] = molecular target: T4, Acetylcholinesterase (Electrophorus electricus, UniProt O42275); test: Inhibition of electric eel AChE incubated for 15 mins by Ellman's method
T4 sequence (O42275 whole entry): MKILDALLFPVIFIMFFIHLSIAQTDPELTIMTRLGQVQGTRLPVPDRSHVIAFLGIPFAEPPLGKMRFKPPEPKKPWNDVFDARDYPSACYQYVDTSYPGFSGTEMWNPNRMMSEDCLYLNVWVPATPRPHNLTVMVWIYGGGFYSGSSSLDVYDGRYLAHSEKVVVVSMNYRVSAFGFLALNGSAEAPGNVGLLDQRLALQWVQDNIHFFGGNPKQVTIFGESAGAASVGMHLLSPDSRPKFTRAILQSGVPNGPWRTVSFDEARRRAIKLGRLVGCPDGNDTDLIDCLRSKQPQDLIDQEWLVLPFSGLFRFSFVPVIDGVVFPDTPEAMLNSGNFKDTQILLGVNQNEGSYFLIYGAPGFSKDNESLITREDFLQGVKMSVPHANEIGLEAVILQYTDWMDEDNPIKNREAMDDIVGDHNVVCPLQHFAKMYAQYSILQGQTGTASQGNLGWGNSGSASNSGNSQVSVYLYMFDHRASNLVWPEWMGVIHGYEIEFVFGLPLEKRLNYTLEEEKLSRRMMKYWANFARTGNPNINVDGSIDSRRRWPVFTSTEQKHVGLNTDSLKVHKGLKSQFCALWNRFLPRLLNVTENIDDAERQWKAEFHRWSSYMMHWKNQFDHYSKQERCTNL

[8] = molecular target: T5, Beta-secretase 1 (Homo sapiens, UniProt P56817); test: Inhibition of BACE1 (unknown origin) expressed in purified baculovirus using RhEVNLDAEFK-Quencher as substrate incubated at 50 uM for 90 mins in dark relative to control
T5 sequence (P56817 whole entry): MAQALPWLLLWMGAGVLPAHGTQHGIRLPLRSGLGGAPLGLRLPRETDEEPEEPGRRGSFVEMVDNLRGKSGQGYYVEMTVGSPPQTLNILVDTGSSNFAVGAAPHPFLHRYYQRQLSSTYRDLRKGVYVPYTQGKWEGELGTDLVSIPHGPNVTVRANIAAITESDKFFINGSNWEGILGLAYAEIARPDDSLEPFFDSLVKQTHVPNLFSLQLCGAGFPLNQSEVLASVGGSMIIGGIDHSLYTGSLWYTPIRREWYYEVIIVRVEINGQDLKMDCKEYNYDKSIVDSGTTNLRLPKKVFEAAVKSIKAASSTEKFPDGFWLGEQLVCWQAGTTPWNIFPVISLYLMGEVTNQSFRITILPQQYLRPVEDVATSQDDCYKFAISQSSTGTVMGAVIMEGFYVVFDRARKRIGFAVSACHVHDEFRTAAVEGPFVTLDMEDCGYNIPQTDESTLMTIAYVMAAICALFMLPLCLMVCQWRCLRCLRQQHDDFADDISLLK

[9] = molecular target: T6, Cholinesterase (Equus caballus, UniProt P81908); test: Inhibition of equine BChE incubated for 15 mins by Ellman's method
T6 sequence (P81908 whole entry): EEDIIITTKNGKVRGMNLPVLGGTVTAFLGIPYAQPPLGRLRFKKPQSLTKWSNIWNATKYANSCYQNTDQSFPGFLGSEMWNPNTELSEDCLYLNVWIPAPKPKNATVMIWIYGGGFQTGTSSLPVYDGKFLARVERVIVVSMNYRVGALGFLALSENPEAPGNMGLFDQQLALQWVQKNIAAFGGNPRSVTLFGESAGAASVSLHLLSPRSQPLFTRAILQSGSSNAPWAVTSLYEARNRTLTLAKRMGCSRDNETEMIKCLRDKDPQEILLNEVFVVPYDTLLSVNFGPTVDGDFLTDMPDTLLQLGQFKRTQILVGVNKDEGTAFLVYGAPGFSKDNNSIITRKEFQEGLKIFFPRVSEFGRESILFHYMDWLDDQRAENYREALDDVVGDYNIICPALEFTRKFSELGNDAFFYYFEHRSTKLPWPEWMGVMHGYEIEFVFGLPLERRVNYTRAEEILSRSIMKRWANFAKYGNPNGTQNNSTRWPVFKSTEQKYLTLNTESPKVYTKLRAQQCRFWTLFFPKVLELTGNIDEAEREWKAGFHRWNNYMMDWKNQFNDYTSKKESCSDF

[10] = molecular target: Acetylcholinesterase (Torpedo californica, UniProt P04058); test: Inhibition of pacific electric ray AChE incubated for 15 mins; set-up: species or system Tetronarce californica
Chain of Acetylcholinesterase (Torpedo californica, UniProt P04058) (P04058 whole entry): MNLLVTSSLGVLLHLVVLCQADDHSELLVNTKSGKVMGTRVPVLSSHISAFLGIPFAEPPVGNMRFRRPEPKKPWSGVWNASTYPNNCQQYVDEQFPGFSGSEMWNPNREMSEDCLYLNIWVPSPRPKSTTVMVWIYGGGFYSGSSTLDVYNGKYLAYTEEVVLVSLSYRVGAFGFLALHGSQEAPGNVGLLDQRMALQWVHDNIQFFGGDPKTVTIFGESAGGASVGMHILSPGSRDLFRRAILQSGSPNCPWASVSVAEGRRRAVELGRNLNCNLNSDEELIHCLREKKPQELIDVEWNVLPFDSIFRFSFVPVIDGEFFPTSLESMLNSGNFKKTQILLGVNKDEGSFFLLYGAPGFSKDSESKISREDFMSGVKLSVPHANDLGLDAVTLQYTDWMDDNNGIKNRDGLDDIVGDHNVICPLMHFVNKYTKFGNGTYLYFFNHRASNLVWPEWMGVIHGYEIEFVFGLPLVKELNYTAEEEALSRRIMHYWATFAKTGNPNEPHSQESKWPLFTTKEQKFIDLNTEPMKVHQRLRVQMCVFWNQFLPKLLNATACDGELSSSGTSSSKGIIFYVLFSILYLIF

[11] = molecular target: T3, Amyloid-beta precursor protein; test: Inhibition of amyloid beta 42 (unknown origin) self aggregation at 80 uM incubated for 24 hrs by fluoroscence emission relative to control
[12] = molecular target: T2, Acetylcholinesterase; test: Inhibition of human recombinant AChE by spectrophotometer based Ellman's method
[13] = molecular target: T3, Amyloid-beta precursor protein; test: Inhibition of amyloid beta 42 (unknown origin) aggregation at 50 uM for 24 hrs by thioflavin T fluorescence method relative to control
[14] = molecular target: T5, Beta-secretase 1; test: Inhibition of BACE1 (unknown origin) at 20 uM by fluorescence assay relative to control
[15] = molecular target: T4, Acetylcholinesterase; test: Inhibition of electric eel AChE using ATChI as substrate
[16] = molecular target: T3, Amyloid-beta precursor protein; test: Inhibition of amyloid beta 42 (unknown origin) fibrillization at 44 uM for 48 hrs by ThT fluorescence assay relative to control
[17] = molecular target: T6, Cholinesterase; test: Inhibition of equine BChE using BTChI as substrate
[18] = molecular target: T3, Amyloid-beta precursor protein; test: Inhibition of amyloid beta 1 to 42 (unknown origin) aggregation at 10 uM for 24 hrs by ThT fluorometric assay relative to control
[19] = molecular target: T1, Cholinesterase; test: Inhibition of human BChE
[20] = molecular target: T2, Acetylcholinesterase; test: Inhibition of human AChE
[21] = molecular target: T3, Amyloid-beta precursor protein; test: Inhibition of amyloid beta 42 (unknown origin) aggregation at 100 uM relative to control
[22] = molecular target: T3, Amyloid-beta precursor protein; test: Inhibition of amyloid beta 42 (unknown origin) fibrillization at 44 uM relative to control
[23] = molecular target: T7, Acetylcholinesterase (Rattus norvegicus, UniProt P37136); test: Inhibition of rat cortex homogenate AChE by Ellman's method; format: tissue-based
T7 sequence (P37136 whole entry): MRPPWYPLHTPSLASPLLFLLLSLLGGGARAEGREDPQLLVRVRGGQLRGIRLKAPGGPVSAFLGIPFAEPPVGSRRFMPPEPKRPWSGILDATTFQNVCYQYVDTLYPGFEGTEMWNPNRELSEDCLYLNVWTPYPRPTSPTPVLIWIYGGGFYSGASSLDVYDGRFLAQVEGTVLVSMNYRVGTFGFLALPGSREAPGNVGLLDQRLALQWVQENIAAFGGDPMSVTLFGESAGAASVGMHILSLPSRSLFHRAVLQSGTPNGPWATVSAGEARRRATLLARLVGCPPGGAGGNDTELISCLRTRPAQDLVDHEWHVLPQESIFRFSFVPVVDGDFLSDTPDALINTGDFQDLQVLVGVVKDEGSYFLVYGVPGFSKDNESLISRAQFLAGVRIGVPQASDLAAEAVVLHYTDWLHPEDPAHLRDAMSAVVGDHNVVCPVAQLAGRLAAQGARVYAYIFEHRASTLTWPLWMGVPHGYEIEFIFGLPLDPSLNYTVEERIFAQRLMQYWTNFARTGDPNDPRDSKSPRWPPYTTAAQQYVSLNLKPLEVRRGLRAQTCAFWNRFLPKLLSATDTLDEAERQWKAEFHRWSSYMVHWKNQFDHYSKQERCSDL

[24] = molecular target: T3, Amyloid-beta precursor protein; test: Inhibition of amyloid beta 1 to 42 (unknown origin) self induced aggregation at 25 uM by ThT fluorescence assay relative to control
[25] = molecular target: T3, Amyloid-beta precursor protein; test: Inhibition of amyloid beta 42 (unknown origin) aggregation at 25 uM by Thioflavin T-based fluorescence assay relative to control
[26] = molecular target: T6, Cholinesterase; test: Inhibition of equine BChE by Ellman's method
[27] = molecular target: T2, Acetylcholinesterase; test: Inhibition of human AChE by Ellman's method
[28] = molecular target: T4, Acetylcholinesterase; test: Inhibition of electric eel AChE by Ellman's method
[29] = molecular target: T5, Beta-secretase 1; test: Inhibition of BACE1 (unknown origin) at 50 uM by FRET-based enzyme assay relative to control
[30] = molecular target: T6, Cholinesterase; test: Inhibition of equine BChE using butyrylthiocholine iodide incubated for 3 mins by Ellman's method
[31] = molecular target: T3, Amyloid-beta precursor protein; test: Inhibition of amyloid beta 42 (unknown origin) aggregation at 1 mM for 12 hrs relative to control
[32] = molecular target: T1, Cholinesterase; test: Inhibition of human recombinant BChE expressed in HEK293 cells using butyrylthiocholine as substrate incubated for 120 mins by Ellman's method
[33] = molecular target: T2, Acetylcholinesterase; test: Inhibition of human recombinant AChE expressed in HEK293 cells using acetylthiocholine as substrate incubated for 120 mins by Ellman's method

T1 sequence (P06276 whole entry): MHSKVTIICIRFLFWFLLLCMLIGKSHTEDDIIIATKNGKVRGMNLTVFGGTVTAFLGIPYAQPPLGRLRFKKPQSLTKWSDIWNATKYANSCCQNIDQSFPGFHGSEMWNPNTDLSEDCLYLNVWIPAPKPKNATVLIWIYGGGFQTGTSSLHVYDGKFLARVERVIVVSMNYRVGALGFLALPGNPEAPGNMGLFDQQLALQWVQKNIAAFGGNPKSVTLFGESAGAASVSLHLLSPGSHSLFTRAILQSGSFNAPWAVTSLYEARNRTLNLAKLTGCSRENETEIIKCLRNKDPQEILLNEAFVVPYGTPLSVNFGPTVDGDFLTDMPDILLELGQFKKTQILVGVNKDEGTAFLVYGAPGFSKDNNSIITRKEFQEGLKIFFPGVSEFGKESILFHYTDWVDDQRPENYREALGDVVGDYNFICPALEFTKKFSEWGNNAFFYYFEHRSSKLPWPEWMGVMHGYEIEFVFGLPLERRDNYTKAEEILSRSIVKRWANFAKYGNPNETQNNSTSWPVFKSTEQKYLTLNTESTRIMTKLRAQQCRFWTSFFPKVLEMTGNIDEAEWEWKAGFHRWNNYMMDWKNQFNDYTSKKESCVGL

Compound: CCOC(=O)C1=C(C)N(CCC2CCN(Cc3ccccc3)CC2)C(=O)NC1c1coc2c(Cl)cc(Cl)cc2c1=O (stereo not given)
IC50 [1]: 17.3 µM
IC50 [2]: 0.06 µM
inhibition [3]: 63.6%
inhibition [4]: 73.7%

inhibition [5]: 62.1%
Compound: CCN(CCCCCOc1cc(O)c2c(c1)OC(c1ccc(O)cc1)CC2=O)Cc1ccccc1 (stereo not given)

inhibition [6]: 94.6%
Compound: CN(C)CCN1CCN(c2ccc(C(=O)/C=C/c3cc4ccccc4o3)cc2)CC1

Compound: O=C(NC1CCN(Cc2ccccc2)CC1)c1cc(-c2cccc([N+](=O)[O-])c2)on1
IC50 [7]: 16.1 µM
inhibition [8]: 24.3%
IC50 [9]: 15.2 µM

Compound: COc1ccc(C(=O)CCC(=O)NCCCNc2c3c(nc4ccccc24)CCCC3)c2ccccc12
IC50 [10]: 0.12 µM
inhibition [11]: 70.5%

Compound: CC1=C(NC2CCN(Cc3ccccc3)CC2)C(=O)c2ccccc2C1=O
IC50 [12]: 47.5 µM
inhibition [13]: 52%

Compound: CCCOc1ccc2c(C)cc(=S)oc2c1OCCC
inhibition [14]: 57.2%
IC50 [15]: 5.63 µM
inhibition [16]: 76.7%
IC50 [17]: 17 µM

inhibition [18]: 60.7%
Compound: O=S(=O)(NCC1CCN(Cc2ccccc2)CC1)c1ccc(-c2ccccc2)cc1

Compound: COC(=O)c1cc(C(=O)c2ccc(OC)cc2)n2ccc(CCCc3cc[n+](C)cc3)cc12
IC50 [19]: 38.9 µM
IC50 [20]: 3.3 µM
inhibition [21]: 55%

Compound: COC(=O)[C@H]1[C@H]2C[C@@H]3c4[nH]c5cc(OC)ccc5c4CCN3C[C@H]2C[C@@H](OC(=O)c2cc(OC)c(OC)c(OC)c2)[C@@H]1OC [RESERPINE]
IC50 [19]: 2.8 µM
IC50 [20]: 1.7 µM
inhibition [22]: 68%

Compound: CCN(CCCCCCOc1ccc(/C=C/C(=O)c2c(O)cc(OC)c(O)c2OC)cc1)Cc1ccccc1OC
IC50 [23]: 0.41 µM
inhibition [24]: 78%

Compound: c1cc2[nH]c3nc(NCCCCCCN4CCCC4)nnc3c2cc1N1CCCCC1
inhibition [25]: 54.3%
IC50 [26]: 0.21 µM
IC50 [27]: 0.32 µM

Compound: O=C(Nc1ccc(Oc2ccc3ccc(=O)oc3c2)cc1)c1cc(-c2cccc([N+](=O)[O-])c2)on1
IC50 [28]: 1.23 µM
inhibition [29]: 48.5%

Compound: O=C(CCCCC1CCSS1)NCc1cn(CCCCOc2ccc3c(=O)ccoc3c2)nn1 (stereo not given)
IC50 [30]: 7.5 µM

Compound: O=C(C[n+]1ccc2ccccc2c1)Nc1ccccc1Br
inhibition [31]: 18%
IC50 [32]: 12 µM
IC50 [33]: 13 µM
